Source: patent US8268867B2, “1,3-dioxane carboxylic acids” (Cadila Healthcare Limited, priority 2006, dated 2012)
Structures can show the parent of a compound that is named as a salt.

Columns and labels:
Swiss albino mice = assay: Serum triglyceride lowering activity in Swiss albino mice; assay type: in vivo; conditions: Mus musculus, po, 144 h; male Swiss albino mice, 10 mg/kg/day orally for 6 days, serum 1 hour after dosing on 6th day
Protocol: Male Swiss albino mice (SAM) were bred in Zydus animal house. All these animals were maintained under 12 hour light and dark cycle at 25±1° C. Animals were given standard laboratory chow (NIN, Hyderabad, India) and water ad libitum. SAM of 20-30 g body weight range was used. The protocol approved by Institutional Animal Ethics Committee is being used.
The test compounds were administered orally to Swiss albino mice at 0.001 to 50 mg/kg/day dose for 6 days. The compound was administered after suspending it in 0.25% CMC or dissolving it in water, when compound is water-soluble. Control mice were treated with vehicle (0.25% of Carboxymethyl cellulose; dose 10 ml/kg).
The blood samples were collected on 0th day and in fed state 1 hour after drug administration on 6th day of the treatment. The blood was collected in non heparinised capillary and the serum was analyzed for triglyceride (Wieland, O. Methods of Enzymatic analysis. Bergermeyer, H., O., Ed., 1963. 211-214; Trinder, P. Ann. Clin. Biochem. 1969. 6: 24-27). Measurement of serum triglyceride was done using commercial kits (Zydus-Cadila, Pathline, Ahmedabad, India).
Percentage Reduction in Triglycerides was Calculated According to the Formula: […]

C57BL/KsJ-db/db mice = assay: Serum glucose and triglycerides lowering activity in db/db mice; assay type: in vivo; conditions: male db/db mice, 3 mg/kg/day oral gavage for 6 days, 1 hour after dosing on 6th day
Protocol: Homozygous animal C57BL/KsJ-db/db mice are obese, hyperglycemic, hyperinsulinemic and insulin resistant (J. Clin. Invest, 85, 962-967, 1990), whereas heterozygous are lean and normoglycemic. The homozygous animals very closely mimic the human type H diabetes when blood sugar levels are not sufficiently controlled. Since this type of model resembles human type II diabetes mellitus, the compounds of the invention were tested for their antidiabetic activity in this model.
Male C57BL/KsJ-db/db mice of 8 to 14 weeks age, having body weight range of 40 to 60 grams, procured from the Jackson Laboratory, USA, were used in the experiment.
Test compounds were suspended on 0.25% carboxymethyl cellulose or dissolved in water when the compound is water soluble and administered to test group containing 6 animals at a dose of 0.001 mg to 50 mg/kg through oral gavage daily for 6 days. The control group received vehicle (dose 10 ml/kg). On the 6th day, one hour after the drug dosing, blood was collected from retro-orbital sinus and the serum was analyzed for glucose and triglycerides were measured using commercial kits (Zydus-Cadila, Pathline, Ahmedabad, India). The serum glucose and triglyceride lowering activities of the test compound was calculated according of the formula: […]

| melting point | SMILES | inhibition in vivo at 10 mg/kg/day (Swiss albino mice) | Plasma TG reduction (%) (C57BL/KsJ-db/db mice) | Serum Glucose reduction (%) (C57BL/KsJ-db/db mice) |
| --- | --- | --- | --- | --- |
| – | CC(=NOCCCCC1COC(C)(C(=O)O)OC1)c1cccs1 (centres unmarked) [Example 68, 2-Methyl-5-[4-(1-thiophen-2-yl-ethylideneaminooxy)-butyl]-[1,3]dioxane-2-carboxylic Acid] | 33% | – | – |
| – | CC(=NOCCCCC1COC(C)(C(=O)O)OC1)c1ccc(-c2ccccc2)cc1 (centres unmarked) [Example 70, 5-[4-(1-Biphenyl-4-yl-ethylideneaminooxy)-butyl]-2-methyl-[1,3]dioxane-2-carboxylic Acid] | 49% | 52% | 26% |
| – | CCC(=NOCCCCC1COC(C)(C(=O)O)OC1)c1ccc(OC)cc1 (centres unmarked) [Example 77, 5-{4-[1-(4-Methoxy-phenyl)-propylideneaminooxy]-butyl}-2-methyl-[1,3]dioxane-2-carboxylic Acid] | 39% | – | – |
| – | CC(=NOCCCCC1COC(C)(C(=O)O)OC1)c1ccc2c(c1)CCCC2 (centres unmarked) [Example 64, 2-Methyl-5-{4-[1-(5,6,7,8-tetrahydro-naphthalen-2-yl)-ethylideneaminooxy]-butyl}-[1,3]dioxane-2-carboxylic Acid] | 85% | 46% | 31% |
| – | COc1ccc(C(C)=NOCCCCC2COC(C)(C(=O)O)OC2)cc1OC (centres unmarked) [Example 59, 5-{4-[1-(3,4-Dimethoxy-phenyl)-ethylideneaminooxy]-butyl}-2-methyl-[1,3]dioxane-2-carboxylic Acid] | 22% | – | – |
| – | CCC(=NOCCCCC1COC(C)(C(=O)O)OC1)c1ccc(C)cc1 (centres unmarked) [Example 78, 2-Methyl-5-[4-(1-p-tolyl-propylideneaminooxy)-butyl]-[1,3]dioxane-2-carboxylic Acid] | 42% | – | – |
| – | COc1ccc(C(C)=NOCCCCC2COC(C)(C(=O)O)OC2)cc1C (centres unmarked) [Example 57, 5-{4-[1-(4-Methoxy-3-methyl-phenyl)-ethylideneaminooxy]-butyl}-2-methyl-[1,3]dioxane-2-carboxylic Acid] | 43% | – | – |
| – | COc1ccc(C(C)=NOCCCCC2COC(C)(C(=O)O)OC2)cc1F (centres unmarked) [Example 61, 5-{4-[1-(3-Fluoro-4-methoxy-phenyl)-ethylideneaminooxy]-butyl}-2-methyl-[1,3]dioxane-2-carboxylic Acid] | 44% | – | – |
| – | CC(=NOCCCCC1COC(C)(C(=O)O)OC1)c1ccc(CC(C)C)cc1 (centres unmarked) [Example 60, 5-{4-[1-(4-Isobutyl-phenyl)-ethylideneaminooxy]-butyl}-2-methyl-[1,3]dioxane-2-carboxylic Acid] | 62% | – | – |
| – | CC(=NOCCCCC1COC(C)(C(=O)O)OC1)c1ccc2c(c1)OCO2 (centres unmarked) [Example 69, 5-[4-(1-Benzo[1,3]dioxol-5-yl-ethylideneaminooxy)-butyl]-2-methyl-[1,3]dioxane-2-carboxylic acid] | 61% | – | – |
| – | CC(=NOCCCCC1COC(C)(C(=O)O)OC1)c1ccc(OS(C)(=O)=O)cc1 (centres unmarked) [Example 67, 5-{4-[1-(4-Methanesulfonyloxy-phenyl)-ethylideneaminooxy]-butyl}-2-methyl-[1,3]dioxane-2-carboxylic Acid] | 75% | 48% | 12% |
| – | CC(=NOCCCCC1COC(C)(C(=O)O)OC1)c1ccc(C(F)(F)F)cc1 (centres unmarked) [Example 44, 2-Methyl-5-{4-[1-(4-trifluoromethyl-phenyl)-ethylideneaminooxy]-butyl}-[1,3]dioxane-2-carboxylic Acid] | 40% | – | – |
| 240 °C | CC(=NOCCCCC1COC(C)(C(=O)O)OC1)c1ccc2ccccc2c1 (centres unmarked) (as salt: sodium) [Example 84, Sodium Salt of 2-Methyl-5-[4-(1-naphthalen-2-yl-ethylideneaminooxy)-butyl]-[1,3]dioxane-2-carboxylic Acid] | – | – | – |
| – | CC(=NOCCCCC1COC(C)(C(=O)O)OC1)c1ccc(F)c(Cl)c1 (centres unmarked) [Example 49, 5-{4-[1-(3-Chloro-4-fluoro-phenyl)-ethylideneaminooxy]-butyl}-2-methyl-[1,3]dioxane-2-carboxylic Acid] | 51% | – | – |
| – | CCc1ccc(C(C)=NOCCCCC2COC(C)(C(=O)O)OC2)cc1 (centres unmarked) [Example 52, 5-{4-[1-(4-Ethyl-phenyl)-ethylideneaminooxy]-butyl}-2-methyl-[1,3]dioxane-2-carboxylic Acid] | 36% | – | – |
| – | CC(=NOCCCCC1COC(C)(C(=O)O)OC1)c1ccc(Cl)cc1 (centres unmarked) [Example 46, 5-{4-[1-(4-Chloro-phenyl)-ethylideneaminooxy]-butyl}-2-methyl-[1,3]dioxane-2-carboxylic Acid] | 39% | – | – |
| – | CC(=NOCCCCCC1COC(C)(C(=O)O)OC1)c1ccc2ccccc2c1 (centres unmarked) [Example 62, 2-Methyl-5-[5-(1-naphthalen-2-yl-ethylideneaminooxy)-pentyl]-[1,3]dioxane-2-carboxylic Acid] | 69% | – | – |
| – | CCCCCCCCOC(=O)C1(C)OCC(CCCCON=C(C)c2ccc3ccccc3c2)CO1 (centres unmarked) [Example 83, Octyl-2-methyl-5-[4-(1-naphthalen-2-yl-ethylideneaminooxy)-butyl]-[1,3]dioxane-2-carboxylate] | 61% | – | – |
| – | CC(=NOCCCCC1COC(C)(C(=O)O)OC1)c1ccc2ccccc2c1 (centres unmarked) [Example 63, 2-Methyl-5-[4-(1-naphthalen-2-yl-ethylideneaminooxy)-butyl]-[1,3]dioxane-2-carboxylic Acid] | 84% | 59% | 41% |
| – | CC(=NOCCCCC1COC(C)(C(=O)O)OC1)c1cccc(C)c1 (centres unmarked) [Example 76, 2-Methyl-5-[4-(1-m-tolyl-ethylideneaminooxy)-butyl]-[1,3]dioxane-2-carboxylic Acid] | 67% | – | – |
| – | CCOc1ccc(C(C)=NOCCCCC2COC(C)(C(=O)O)OC2)cc1 (centres unmarked) [Example 55, 5-{4-[1-(4-Ethoxy-phenyl)-ethylideneaminooxy]-butyl}-2-methyl-[1,3]dioxane-2-carboxylic Acid] | 46% | – | – |
| – | CC(=NOCCCCC1COC(C)(C(=O)O)OC1)c1ccc(C)cc1 (centres unmarked) [Example 48, 2-Methyl-5-[4-(1-p-tolyl-ethylideneaminooxy)-butyl]-[1,3]dioxane-2-carboxylic Acid] | 64% | 44% | 14% |
| – | COc1ccc(C(C)=NOCCCCC2COC(C)(C(=O)O)OC2)cc1 (centres unmarked) [Example 66, 5-{4-[1-(4-Methoxy-phenyl)-ethylideneaminooxy]-butyl}-2-methyl-[1,3]dioxane-2-carboxylic Acid] | 50% | 45% | 27% |
